Laboratory results as given in patent publication EP3685668B1, “COMPOSITION COMPRISING ACIBENZOLAR-S-METHYL AS EFFECTIVE INGREDIENT FOR CONTROLLING BURSAPHELENCHUS XYLOPHILUS DISEASE AND METHOD FOR CONTROLLING BURSAPHELENCHUS XYLOPHILUS USING SAME” (Industry Foundation of Chonnam National University, priority 2017, dated 2019).

Assays:
[1] = system: Bursaphelenchus xylophilus; test: Occurrence of pine wilt disease after trunk injection of induced resistance candidate materials, in vivo test in young red pine trees; details: red pine tree (Pinus densiflora), 30 days after inoculation; for Occurrence rate of pine wilt disease: Number of pine trees showing wilt symptoms / Number of pine trees used for the test: trunk injection 100 µℓ per tree; for Number of pine trees showing wilt symptoms only at growing points of a stem: trunk injection
In short: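 Two-year-old Pinus densiflora seedlings received 100 µℓ trunk injection of elicitor at 200, 20 or 2 µg/mℓ, 5–10 cm above soil. One week later, 2,000 Botrytis-reared nematodes were bark-inoculated per tree; disease occurrence scored 30 days post-inoculation.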

Antipeptide = test: qRT-PCR expression of induced resistance gene in pine tree callus; format: cell-based; details: 200 µg/mℓ, 24 hours
Heat shock 70 = test: as above; format: cell-based; details: 200 µg/mℓ, 24 hours
Hydroxyproline = test: as above; format: cell-based; details: 200 µg/mℓ, 24 hours
In short: (§1)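 Pine callus (100 mg) in LM liquid medium treated with candidate inducers at 200 µg/mℓ final, applied to the surface or sprayed, shaken 50 rpm at 25 °C in the dark for 24 h (acibenzolar-S-methyl also 1, 7 or 14 days). Gene expression by qRT-PCR on callus RNA, with elongation factor_1 alpha as reference.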

Metallothionein = test: as above; format: cell-based; details: 200 µg/mℓ, 24 hours
In short: as §1

PR_2 family = test: as above; format: cell-based; details: 200 µg/mℓ, 24 hours
PR_3 family class 1 = test: as above; format: cell-based; details: 200 µg/mℓ, 24 hours
PR_3 family class 4 = test: as above; format: cell-based; details: 200 µg/mℓ, 24 hours
In short: as §1

PR_4 family = test: as above; format: cell-based; details: 200 µg/mℓ, 24 hours
In short: as §1

PR_9 family = test: as above; format: cell-based; details: 200 µg/mℓ, 24 hours
In short: as §1

Xyloglucan = test: as above; format: cell-based; details: 200 µg/mℓ, 24 hours

CC/C=C\CC1C(=O)CCC1CC(=O)OC (stereo not drawn) [MeJA, Methyl jasmonate]
Occurrence rate of pine wilt disease: Number of pine trees showing wilt symptoms / Number of pine trees used for the test ([1]; 2 µg/mℓ): 3/3 | Occurrence rate of pine wilt disease: Number of pine trees showing wilt symptoms / Number of pine trees used for the test ([1]; 20 µg/mℓ): 2/3 | Occurrence rate of pine wilt disease: Number of pine trees showing wilt symptoms / Number of pine trees used for the test ([1]; 200 µg/mℓ): 2/3 | Number of pine trees showing wilt symptoms only at growing points of a stem ([1]; 2 µg/mℓ): 1 | Number of pine trees showing wilt symptoms only at growing points of a stem ([1]; 20 µg/mℓ): 1 | Number of pine trees showing wilt symptoms only at growing points of a stem ([1]; 200 µg/mℓ): 2 | Expression of induced resistance gene, Antipeptide (Antipeptide): 0.43 | Expression of induced resistance gene, Heat shock 70 (Heat shock 70): 0.69 | Expression of induced resistance gene, Hydroxyproline (Hydroxyproline): 0.53 | Expression of induced resistance gene, Metallothionein (Metallothionein): 0.21 | Expression of induced resistance gene, PR_2 family (PR_2 family): 0.47 | Expression of induced resistance gene, PR_3 family class 1 (PR_3 family class 1): 0.54 | Expression of induced resistance gene, PR_3 family class 4 (PR_3 family class 4): 0.79 | Expression of induced resistance gene, PR_4 family (PR_4 family): 5.86 | Expression of induced resistance gene, PR_9 family (PR_9 family): 0.47 | Expression of induced resistance gene, Xyloglucan (Xyloglucan): 0.44

C=CCOC1=NS(=O)(=O)c2ccccc21 [PBZ, Probenzole]
Occurrence rate of pine wilt disease: Number of pine trees showing wilt symptoms / Number of pine trees used for the test ([1]; 2 µg/mℓ): 2/3 | Occurrence rate of pine wilt disease: Number of pine trees showing wilt symptoms / Number of pine trees used for the test ([1]; 20 µg/mℓ): 0/3 | Occurrence rate of pine wilt disease: Number of pine trees showing wilt symptoms / Number of pine trees used for the test ([1]; 200 µg/mℓ): 1/3 | Number of pine trees showing wilt symptoms only at growing points of a stem ([1]; 2 µg/mℓ): 1 | Number of pine trees showing wilt symptoms only at growing points of a stem ([1]; 200 µg/mℓ): 1 | Expression of induced resistance gene, Antipeptide (Antipeptide): 1.11 | Expression of induced resistance gene, Heat shock 70 (Heat shock 70): 0.73 | Expression of induced resistance gene, Hydroxyproline (Hydroxyproline): 1.21 | Expression of induced resistance gene, Metallothionein (Metallothionein): 0.25 | Expression of induced resistance gene, PR_2 family (PR_2 family): 0.46 | Expression of induced resistance gene, PR_3 family class 1 (PR_3 family class 1): 1.04 | Expression of induced resistance gene, PR_3 family class 4 (PR_3 family class 4): 0.74 | Expression of induced resistance gene, PR_4 family (PR_4 family): 0.46 | Expression of induced resistance gene, PR_9 family (PR_9 family): 2.52 | Expression of induced resistance gene, Xyloglucan (Xyloglucan): 1.41

Cc1ccc(NC(=O)c2snnc2C)cc1Cl [TDL, Tiadinil]
Occurrence rate of pine wilt disease: Number of pine trees showing wilt symptoms / Number of pine trees used for the test ([1]; 2 µg/mℓ): 3/3 | Occurrence rate of pine wilt disease: Number of pine trees showing wilt symptoms / Number of pine trees used for the test ([1]; 20 µg/mℓ): 2/3 | Occurrence rate of pine wilt disease: Number of pine trees showing wilt symptoms / Number of pine trees used for the test ([1]; 200 µg/mℓ): 1/3 | Number of pine trees showing wilt symptoms only at growing points of a stem ([1]; 2 µg/mℓ): 3 | Number of pine trees showing wilt symptoms only at growing points of a stem ([1]; 20 µg/mℓ): 2 | Number of pine trees showing wilt symptoms only at growing points of a stem ([1]; 200 µg/mℓ): 1 | Expression of induced resistance gene, Antipeptide (Antipeptide): 0.64 | Expression of induced resistance gene, Heat shock 70 (Heat shock 70): 0.29 | Expression of induced resistance gene, Hydroxyproline (Hydroxyproline): 0.97 | Expression of induced resistance gene, Metallothionein (Metallothionein): 0.1 | Expression of induced resistance gene, PR_2 family (PR_2 family): 0.98 | Expression of induced resistance gene, PR_3 family class 1 (PR_3 family class 1): 0.82 | Expression of induced resistance gene, PR_3 family class 4 (PR_3 family class 4): 1.22 | Expression of induced resistance gene, PR_4 family (PR_4 family): 1.24 | Expression of induced resistance gene, PR_9 family (PR_9 family): 1.48 | Expression of induced resistance gene, Xyloglucan (Xyloglucan): 1.23

OCC1=C[C@@H](N[C@H]2C[C@H](CO)[C@@H](O[C@H]3O[C@@H](CO)[C@H](O)[C@@H](O)[C@@H]3O)[C@H](O)[C@H]2O)[C@H](O)[C@@H](O)[C@@H]1O [VMA, Validamycin A]
Occurrence rate of pine wilt disease: Number of pine trees showing wilt symptoms / Number of pine trees used for the test ([1]; 2 µg/mℓ): 2/3 | Occurrence rate of pine wilt disease: Number of pine trees showing wilt symptoms / Number of pine trees used for the test ([1]; 20 µg/mℓ): 1/3 | Occurrence rate of pine wilt disease: Number of pine trees showing wilt symptoms / Number of pine trees used for the test ([1]; 200 µg/mℓ): 2/3 | Number of pine trees showing wilt symptoms only at growing points of a stem ([1]; 2 µg/mℓ): 2 | Number of pine trees showing wilt symptoms only at growing points of a stem ([1]; 20 µg/mℓ): 1 | Number of pine trees showing wilt symptoms only at growing points of a stem ([1]; 200 µg/mℓ): 1 | Expression of induced resistance gene, Antipeptide (Antipeptide): 2.36 | Expression of induced resistance gene, Heat shock 70 (Heat shock 70): 2.19 | Expression of induced resistance gene, Hydroxyproline (Hydroxyproline): 2.31 | Expression of induced resistance gene, Metallothionein (Metallothionein): 0.99 | Expression of induced resistance gene, PR_2 family (PR_2 family): 0.83 | Expression of induced resistance gene, PR_3 family class 1 (PR_3 family class 1): 1.67 | Expression of induced resistance gene, PR_3 family class 4 (PR_3 family class 4): 2.95 | Expression of induced resistance gene, PR_4 family (PR_4 family): 1.43 | Expression of induced resistance gene, PR_9 family (PR_9 family): 1.37 | Expression of induced resistance gene, Xyloglucan (Xyloglucan): 1.99
